Reference: the supplement of paper PMC10307832

Experiments:
Assay in all cases: relative viability (nuclei count vs DMSO), 5 days (fraction); higher = more cells survive
COR-L23 = system: COR-L23
How it was run: (§1)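 Nuclei were stained with Hoechst during a one-step fixation (final 0.05% Triton X-100, 1% formaldehyde, 1 ug/ml Hoechst) carried out 5 days after dosing, then counted on 4× images. The cells, lung cancer lines in 1536-well plates, had been dosed by pin tool the day after seeding with one drug alone or a fixed anchor-drug dose plus five library-drug doses (not always all listed) in √10 steps. Relative viability is the nuclei count in treated wells divided by that in vehicle wells, and each value is the median of duplicate plates.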

NCI-H2126 = system: NCI-H2126
How it was run: as §1

SW 1573 = system: SW 1573
How it was run: as §1

RERF-LC-KJ = system: RERF-LC-KJ
How it was run: as §1

NCI-H522 = system: NCI-H522
How it was run: as §1

NCI-H838 = system: NCI-H838
How it was run: as §1

NCI-H23 = system: NCI-H23
How it was run: as §1

SW 900 = system: SW 900
How it was run: as §1

H3255 = system: H3255
How it was run: as §1

UMC-11 = system: UMC-11
How it was run: as §1

NCI-H1915 = system: NCI-H1915
How it was run: as §1

NCI-H1755 = system: NCI-H1755
How it was run: as §1

HCC-827 = system: HCC-827
How it was run: as §1

NCI-H1792 = system: NCI-H1792
How it was run: as §1

NCI-H3122 = system: NCI-H3122
How it was run: as §1

EMC-BAC-2 = system: EMC-BAC-2
How it was run: as §1

NCI-H520 = system: NCI-H520
How it was run: as §1

EKVX = system: EKVX
How it was run: as §1

NCI-H2405 = system: NCI-H2405
How it was run: as §1

NCI-H661 = system: NCI-H661
How it was run: as §1

HCC-15 = system: HCC-15
How it was run: as §1

LC-2-ad = system: LC-2-ad
How it was run: as §1

HARA = system: HARA
How it was run: as §1

LCLC-97TM1 = system: LCLC-97TM1
How it was run: as §1

Cc1cn(-c2cc(NC(=O)c3ccc(C)c(Nc4nccc(-c5cccnc5)n4)c3)cc(C(F)(F)F)c2)cn1 [Nilotinib] + Nc1nc2[nH]cc(CCc3ccc(C(=O)N[C@@H](CCC(=O)O)C(=O)O)cc3)c2c(=O)[nH]1 [Pemetrexed] (partner 0.2 µM)
relative viability (COR-L23; first compound 0.001 µM): 0.187 | relative viability (COR-L23; first compound 0.003162 µM): 0.183 | relative viability (COR-L23; first compound 0.01 µM): 0.19 | relative viability (COR-L23; first compound 0.03162 µM): 0.163 | relative viability (COR-L23; first compound 0.1 µM): 0.163 | relative viability (NCI-H2126; first compound 0.001 µM): 0.68 | relative viability (NCI-H2126; first compound 0.003162 µM): 0.767 | relative viability (NCI-H2126; first compound 0.01 µM): 0.79 | relative viability (NCI-H2126; first compound 0.03162 µM): 0.656 | relative viability (NCI-H2126; first compound 0.1 µM): 0.47 | relative viability (SW 1573; first compound 0.001 µM): 0.801 | relative viability (SW 1573; first compound 0.003162 µM): 0.994 | relative viability (SW 1573; first compound 0.01 µM): 0.91 | relative viability (SW 1573; first compound 0.03162 µM): 0.541 | relative viability (SW 1573; first compound 0.1 µM): 0.171 | relative viability (RERF-LC-KJ; first compound 0.001 µM): 0.508 | relative viability (RERF-LC-KJ; first compound 0.003162 µM): 0.6 | relative viability (RERF-LC-KJ; first compound 0.01 µM): 0.454 | relative viability (RERF-LC-KJ; first compound 0.03162 µM): 0.422 | relative viability (RERF-LC-KJ; first compound 0.1 µM): 0.274 | relative viability (NCI-H522; first compound 0.01 µM): 1.21 | relative viability (NCI-H522; first compound 0.03162 µM): 0.949 | relative viability (NCI-H522; first compound 0.1 µM): 0.792 | relative viability (NCI-H838; first compound 0.001 µM): 0.246 | relative viability (NCI-H838; first compound 0.003162 µM): 0.258 | relative viability (NCI-H838; first compound 0.01 µM): 0.261 | relative viability (NCI-H838; first compound 0.03162 µM): 0.252 | relative viability (NCI-H838; first compound 0.1 µM): 0.228 | relative viability (NCI-H23; first compound 0.001 µM): 0.739 | relative viability (NCI-H23; first compound 0.003162 µM): 0.553 | relative viability (NCI-H23; first compound 0.01 µM): 0.494 | relative viability (NCI-H23; first compound 0.03162 µM): 0.575 | relative viability (NCI-H23; first compound 0.1 µM): 0.368 | relative viability (SW 900; first compound 0.003162 µM): 0.459 | relative viability (SW 900; first compound 0.01 µM): 0.38 | relative viability (SW 900; first compound 0.03162 µM): 0.239 | relative viability (SW 900; first compound 0.1 µM): 0.245 | relative viability (H3255; first compound 0.001 µM): 0.528 | relative viability (H3255; first compound 0.003162 µM): 0.671 | relative viability (H3255; first compound 0.01 µM): 0.578 | relative viability (H3255; first compound 0.03162 µM): 0.579 | relative viability (H3255; first compound 0.1 µM): 0.523 | relative viability (UMC-11; first compound 0.001 µM): 0.789 | relative viability (UMC-11; first compound 0.003162 µM): 0.914 | relative viability (UMC-11; first compound 0.01 µM): 0.857 | relative viability (UMC-11; first compound 0.03162 µM): 0.495 | relative viability (UMC-11; first compound 0.1 µM): 0.631 | relative viability (NCI-H1915; first compound 0.001 µM): 0.435 | relative viability (NCI-H1915; first compound 0.003162 µM): 0.427 | relative viability (NCI-H1915; first compound 0.01 µM): 0.532 | relative viability (NCI-H1915; first compound 0.03162 µM): 0.449 | relative viability (NCI-H1915; first compound 0.1 µM): 0.438 | relative viability (NCI-H1755; first compound 0.001 µM): 0.41 | relative viability (NCI-H1755; first compound 0.003162 µM): 0.383 | relative viability (NCI-H1755; first compound 0.01 µM): 0.328 | relative viability (NCI-H1755; first compound 0.03162 µM): 0.306 | relative viability (NCI-H1755; first compound 0.1 µM): 0.361 | relative viability (HCC-827; first compound 0.001 µM): 0.272 | relative viability (HCC-827; first compound 0.003162 µM): 0.224 | relative viability (HCC-827; first compound 0.03162 µM): 0.217 | relative viability (HCC-827; first compound 0.1 µM): 0.245 | relative viability (NCI-H1792; first compound 0.001 µM): 0.623 | relative viability (NCI-H1792; first compound 0.003162 µM): 0.899 | relative viability (NCI-H1792; first compound 0.01 µM): 0.72 | relative viability (NCI-H1792; first compound 0.03162 µM): 0.525 | relative viability (NCI-H1792; first compound 0.1 µM): 0.709 | relative viability (NCI-H3122; first compound 0.001 µM): 0.18 | relative viability (NCI-H3122; first compound 0.003162 µM): 0.226 | relative viability (NCI-H3122; first compound 0.01 µM): 0.212 | relative viability (NCI-H3122; first compound 0.03162 µM): 0.2 | relative viability (NCI-H3122; first compound 0.1 µM): 0.195 | relative viability (EMC-BAC-2; first compound 0.001 µM): 0.427 | relative viability (EMC-BAC-2; first compound 0.003162 µM): 0.618 | relative viability (EMC-BAC-2; first compound 0.01 µM): 0.471 | relative viability (EMC-BAC-2; first compound 0.03162 µM): 0.46 | relative viability (EMC-BAC-2; first compound 0.1 µM): 0.437 | relative viability (NCI-H520; first compound 0.001 µM): 0.591 | relative viability (NCI-H520; first compound 0.003162 µM): 0.674 | relative viability (NCI-H520; first compound 0.01 µM): 0.717 | relative viability (NCI-H520; first compound 0.03162 µM): 0.578 | relative viability (NCI-H520; first compound 0.1 µM): 0.556 | relative viability (EKVX; first compound 0.001 µM): 0.33 | relative viability (EKVX; first compound 0.003162 µM): 0.27 | relative viability (EKVX; first compound 0.01 µM): 0.471 | relative viability (EKVX; first compound 0.03162 µM): 0.353 | relative viability (NCI-H2405; first compound 0.001 µM): 1.03 | relative viability (NCI-H2405; first compound 0.003162 µM): 0.91 | relative viability (NCI-H2405; first compound 0.01 µM): 0.924 | relative viability (NCI-H2405; first compound 0.03162 µM): 0.699 | relative viability (NCI-H2405; first compound 0.1 µM): 0.614 | relative viability (NCI-H661; first compound 0.001 µM): 0.966 | relative viability (NCI-H661; first compound 0.003162 µM): 1.03 | relative viability (NCI-H661; first compound 0.01 µM): 1.07 | relative viability (NCI-H661; first compound 0.03162 µM): 0.888 | relative viability (NCI-H661; first compound 0.1 µM): 0.893 | relative viability (HCC-15; first compound 0.001 µM): 0.213 | relative viability (HCC-15; first compound 0.003162 µM): 0.205 | relative viability (HCC-15; first compound 0.01 µM): 0.204 | relative viability (HCC-15; first compound 0.03162 µM): 0.18 | relative viability (HCC-15; first compound 0.1 µM): 0.162 | relative viability (LC-2-ad; first compound 0.001 µM): 0.248 | relative viability (LC-2-ad; first compound 0.003162 µM): 0.251 | relative viability (LC-2-ad; first compound 0.01 µM): 0.257 | relative viability (LC-2-ad; first compound 0.03162 µM): 0.251 | relative viability (LC-2-ad; first compound 0.1 µM): 0.248 | relative viability (HARA; first compound 0.001 µM): 0.311 | relative viability (HARA; first compound 0.003162 µM): 0.235 | relative viability (HARA; first compound 0.01 µM): 0.198 | relative viability (HARA; first compound 0.03162 µM): 0.184 | relative viability (HARA; first compound 0.1 µM): 0.214 | relative viability (LCLC-97TM1; first compound 0.001 µM): 0.18 | relative viability (LCLC-97TM1; first compound 0.003162 µM): 0.165 | relative viability (LCLC-97TM1; first compound 0.01 µM): 0.175 | relative viability (LCLC-97TM1; first compound 0.03162 µM): 0.183 | relative viability (LCLC-97TM1; first compound 0.1 µM): 0.0978
